From patent US7074824B2, “Pharmaceutical compositions containing beta-lapachone, or derivatives or analogs thereof, and methods of using same” (Arqule, Inc., priority 2001, dated 2006)

Columns and labels:
[1] = tested on: human carcinoma cells; experiment: Colony formation assay of β-lapachone combined with Taxol®; format: cell-based; details: 4 h exposure, colonies scored after 10–20 days; ovarian, breast, prostate, melanoma, lung and pancreatic cell lines, FIG. 4
Procedure: In these studies, exponentially growing cells were seeded at 1,000 cells per well in six-well plates and allowed to attach for 48 h. β-lapachone and/or Taxol®, solubilized in DMSO, were added to the wells. Control wells were treated with equivalent volumes of DMSO. After 4 h cells were rinsed and fresh medium was added. Cultures were observed daily for 10–20 days and then were fixed and stained. Colonies of greater than 30 cells were scored as survivors.

[2] = tested on: Human ovarian cancer cells (36M2); experiment: Human ovarian cancer xenograft model, β-lapachone in Lipiodol and Taxol®; format: in vivo, athymic female nude mice; details: i.p., 10 cycles
Procedure: Human ovarian cancer cells (36M2, originally isolated from malignant ascites) were inoculated by i.p. injection into athymic female nude mice 24 h after irradiation. In this model, metastatic foci form approximately 1 week after inoculation, and tumor nodules of the peritoneum and malignant ascites develop in 4–5 weeks. Ten days after tumor inoculation (10×10^6 cells), treatment regimens were initiated. The control group was treated with vehicle alone. In each typical treatment cycle, the β-lapachone alone group was treated with 25–50 mg/kg i.p. of β-lapachone in Lipiodol solution and the Taxol® alone group was treated at 1 mg/kg i.p. (Taxol® formulation diluted in Lipiodol), both followed 24 h later by i.p. injection of vehicle. In the combination group, nude mice were treated with β-lapachone at 25–50 mg/kg, followed 24 h later by Taxol® at 1 mg/kg. All groups were treated for 10 cycles, with a 1-day break between each cycle. […] Host toxicity was evaluated by general appearance and body weight.

[3] = tested on: A2780DDP; details: stated as typical value, read-out: IC50 concentration; cited from earlier work

Compound	inhibition of cancer cell survival (colony formation) [1]	decrease in tumor number versus control ([2]; assessed day 50, β-lapachone 25–50 mg/kg in Lipiodol, Taxol® 1 mg/kg)	size of the tumor nodules and amount of ascites ([2]; laparotomy at day 50)	IC50 [3]
CC(=O)O[C@H]1C(=O)[C@@]2(C)[C@H]([C@H](OC(=O)c3ccccc3)[C@]3(O)C[C@H](OC(=O)[C@H](O)[C@@H](NC(=O)c4ccccc4)c4ccccc4)C(C)=C1C3(C)C)[C@]1(OC(C)=O)CO[C@@H]1C[C@@H]2O [Taxol®, paclitaxel, reference compound]	much less effective	~60%	considerable reduction in the size of the tumor nodules and the amount of ascites	–
N.N.[Cl][Pt][Cl] [cisplatin]	–	–	–	> 100 µM
